Reference: patent US8658642B2 (Axikin Pharmaceuticals, Inc., priority 2009, dated 2014)

Target: T1, CCR3 (Homo sapiens, UniProt P51677)
T1 sequence (P51677 1-355): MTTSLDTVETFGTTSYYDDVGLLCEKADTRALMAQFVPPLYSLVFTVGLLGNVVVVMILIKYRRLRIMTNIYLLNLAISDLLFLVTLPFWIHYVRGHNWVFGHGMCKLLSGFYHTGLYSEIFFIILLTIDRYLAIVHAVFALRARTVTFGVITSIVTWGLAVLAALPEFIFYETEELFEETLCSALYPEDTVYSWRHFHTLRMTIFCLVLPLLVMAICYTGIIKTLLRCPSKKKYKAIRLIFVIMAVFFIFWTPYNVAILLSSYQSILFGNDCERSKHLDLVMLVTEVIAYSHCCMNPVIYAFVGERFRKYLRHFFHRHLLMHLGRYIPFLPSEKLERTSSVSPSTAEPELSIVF
Assay: CCR3 receptor binding assay ([125I]-labeled human eotaxin/CCL11 displacement on cells)
Conditions: 0.1 nM [125I]-labeled human eotaxin/CCL11, 2×10^5 cells/well, 60 min at room temperature
Summary of the method: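 Cells (2×10^5/well) incubated 60 min at room temperature with 0.1 nM [125I]-human eotaxin/CCL11 in 25 mM HEPES pH 7.6, MgCl2, CaCl2, 0.5% BSA. Bound radioactivity counted after filtration and 0.5 M NaCl washes. Non-specific binding defined with 500 nM unlabeled eotaxin.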

Row | Ki | SMILES
1 | > 5 µM | Cc1cc(C)cc(Oc2ccc(C#N)cc2S(=O)(=O)N2CCN(C(=O)C3CCCCC3)CC2)c1 [Compound 65, 3-(4-(Cyclohexanecarbonyl)piperazin-1-ylsulfonyl)-4-(3,5-dimethylphenoxy)benzonitrile]
2 | > 5 µM | Cc1ccc(NC(=O)N2CCN(S(=O)(=O)c3cc([N+](=O)[O-])ccc3Sc3cc(Cl)ccc3Cl)CC2)cc1 [Compound 193, 4-(2-(2,5-Dichlorophenylthio)-5-nitrophenylsulfonyl)-N-p-tolylpiperazine-1-carboxamide]
3 | ≤ 0.05 µM | N#Cc1ccc(Oc2cc(Cl)cc(Cl)c2)c(S(=O)(=O)N2CCN(C(=O)CCCCl)CC2)c1 [Compound 141]
4 | > 5 µM | N#Cc1ccc(Oc2cc(Cl)cc(Cl)c2)c(S(=O)(=O)N2CCN(C(=O)Oc3ccc([N+](=O)[O-])cc3)CC2)c1 [Compound 155]
5 | > 5 µM | CC(C)NC(=S)N1CCN(S(=O)(=O)c2cc(C#N)ccc2Sc2cc(Cl)cc(Cl)c2)CC1 [Compound 101]
6 | > 5 µM | N#Cc1ccc(Sc2cc(Cl)cc(Cl)c2)c(S(=O)(=O)N2CCN(C(=O)c3ccc(C(F)(F)F)cc3)CC2)c1 [Compound 98]
7 | > 5 µM | N#Cc1ccc(Oc2cc(Cl)cc(Cl)c2)c(S(=O)(=O)N2CCN(C(=O)C3CCC3)CC2)c1 [Compound 73, 3-(4-(Cyclobutanecarbonyl)piperazin-1-ylsulfonyl)-4-(3,5-dichlorophenoxy)benzonitrile]
8 | 0.05 to 0.5 µM | Cc1cc(C)cc(Sc2ccc(C#N)cc2S(=O)(=O)N2CCN(C(=O)c3ccccc3)CC2)c1 [Compound 89, 3-(4-Benzoylpiperazin-1-ylsulfonyl)-4-(3,5-dimethylphenylthio)benzonitrile]
9 | > 5 µM | N#Cc1ccc(Oc2cc(Cl)cc(Cl)c2)c(S(=O)(=O)N2CCN(C(=O)c3ccco3)CC2)c1 [Compound 122]
10 | > 5 µM | COc1ccc(C(=O)N2CCN(S(=O)(=O)c3cc([N+](=O)[O-])ccc3Oc3cc(Cl)ccc3Cl)CC2)cc1 [Compound 184, (4-(2-(2,5-Dichlorophenoxy)-5-nitrophenylsulfonyl)piperazin-1-yl)(4-methoxyphenyl)methanone]
11 | 0.05 to 0.5 µM | Cc1ccc(C(=O)N2CCN(S(=O)(=O)c3cc(C#N)ccc3Sc3cc(C)cc(C)c3)CC2)cc1 [Compound 90, 4-(3,5-Dimethylphenylthio)-3-(4-(4-methylbenzoyl)piperazin-1-ylsulfonyl)benzonitrile]
12 | 0.05 to 0.5 µM | N#Cc1ccc(Oc2cc(Cl)cc(Cl)c2)c(S(=O)(=O)N2CCN(C(=O)c3ccc(Cl)cc3)CC2)c1 [Compound 78, 3-(4-(4-Chlorobenzoyl)piperazin-1-ylsulfonyl)-4-(3,5-dichlorophenoxy)benzonitrile]
13 | > 5 µM | Cc1cc(C)cc(Oc2ccc(C#N)cc2S(=O)(=O)N2CCN(S(C)(=O)=O)CC2)c1 [Compound 52, 4-(3,5-Dimethylphenoxy)-3-(4-(methylsulfonyl)piperazin-1-ylsulfonyl)benzonitrile]
14 | ≤ 0.05 µM | CC(C)C(=O)N1CCN(S(=O)(=O)c2cc(C#N)ccc2Oc2cc(Cl)cc(Cl)c2)CC1 [Compound 110]
15 | > 5 µM | C=CNC(=O)N1CCN(S(=O)(=O)c2cc(C#N)ccc2Oc2cc(Cl)cc(Cl)c2)CC1 [Compound 150]
16 | 0.5 to 5 µM | N#Cc1ccc(Oc2cc(Cl)cc(Cl)c2)c(S(=O)(=O)N2CCN(C(=O)c3ccccc3Cl)CC2)c1 [Compound 84, 3-(4-(2-Chlorobenzoyl)piperazin-1-ylsulfonyl)-4-(3,5-dichlorophenoxy)benzonitrile]
17 | 0.05 to 0.5 µM | Cc1cc(C)cc(Oc2ccc(C#N)cc2S(=O)(=O)N2CCN(C(=O)NC(C)C)CC2)c1 [Compound 58, 4-(5-cyano-2-(3,5-dimethylphenoxy)phenylsulfonyl)-N-isopropylpiperazine-1-carboxamide]
18 | ≤ 0.05 µM | CC(=O)N1CCN(S(=O)(=O)c2cc(C#N)ccc2Oc2cc(Cl)cc(Cl)c2)CC1 [Compound 109]
19 | > 5 µM | Cc1cc(C)cc(Oc2ccc(C#N)cc2S(=O)(=O)N2CCN(C(=O)Nc3ccc(C#N)cc3)CC2)c1 [Compound 116]
20 | > 5 µM | CC(C)C(=O)N1CCN(S(=O)(=O)c2cc(C#N)ccc2Sc2cc(Cl)cc(Cl)c2)CC1 [Compound 112]
21 | ≤ 0.05 µM | N#Cc1ccc(Oc2cc(Cl)cc(Cl)c2)c(S(=O)(=O)N2CCN(C(N)=O)CC2)c1 [Compound 125]
22 | > 5 µM | Cc1cc(C)cc(Oc2ccc(C#N)cc2S(=O)(=O)N2CCN(C(=O)c3ccccc3)CC2)c1 [Compound 55, 3-(4-Benzoylpiperazin-1-ylsulfonyl)-4-(3,5-dimethylphenoxy)benzonitrile]
23 | > 5 µM | Cc1cc(C)cc(Oc2ccc(C#N)cc2S(=O)(=O)N2CCN(C(=O)C(C)(C)C)CC2)c1 [Compound 63, 4-(3,5-Dimethylphenoxy)-3-(4-pivaloylpiperazin-1-ylsulfonyl)benzonitrile]

Row | Ki | SMILES
24 | 0.05 to 0.5 µM | N#Cc1ccc(Oc2cc(Cl)cc(Cl)c2)c(S(=O)(=O)N2CCN(C(=O)c3cnccn3)CC2)c1 [Compound 133]
25 | 0.05 to 0.5 µM | N#Cc1ccc(Oc2cc(Cl)cc(Cl)c2)c(S(=O)(=O)N2CCN(C(=O)NCc3ccccc3)CC2)c1 [Compound 97]
26 | > 5 µM | Cc1cc(C)cc(Oc2ccc(C#N)cc2S(=O)(=O)N2CCN(C(=S)NC(C)C)CC2)c1 [Compound 103]
27 | > 5 µM | N#Cc1ccc(Oc2cc(Cl)cc(Cl)c2)c(S(=O)(=O)N2CCN(C(=O)c3cccc(F)c3)CC2)c1 [Compound 86, 4-(3,5-Dichlorophenoxy)-3-(4-(3-fluorobenzoyl)piperazin-1-ylsulfonyl)benzonitrile]
28 | > 5 µM | Cc1cc(C)cc(Oc2ccc(C#N)cc2S(=O)(=O)N2CCN(C(=O)CC(C)(C)C)CC2)c1 [Compound 67, 3-(4-(3,3-Dimethylbutanoyl)piperazin-1-ylsulfonyl)-4-(3,5-dimethylphenoxy)benzonitrile]
29 | 0.05 to 0.5 µM | N#CCC(=O)N1CCN(S(=O)(=O)c2cc(C#N)ccc2Oc2cc(Cl)cc(Cl)c2)CC1 [Compound 148]
30 | > 5 µM | N#Cc1ccc(NC(=O)N2CCN(S(=O)(=O)c3cc([N+](=O)[O-])ccc3Sc3cc(Cl)ccc3Cl)CC2)cc1 [Compound 194, N-(4-Cyanophenyl)-4-(2-(2,5-dichlorophenylthio)-5-nitrophenylsulfonyl)-piperazine-1-carboxamide]
31 | 0.5 to 5 µM | CC(C)CC(=O)N1CCN(S(=O)(=O)c2cc(C#N)ccc2Oc2cc(Cl)cc(Cl)c2)CC1 [Compound 72, 4-(3,5-Dichlorophenoxy)-3-(4-(3-methylbutanoyl)piperazin-1-ylsulfonyl)benzonitrile]
32 | > 5 µM | CCC(C)(C)C(=O)N1CCN(S(=O)(=O)c2cc(C#N)ccc2Oc2cc(C)cc(C)c2)CC1 [Compound 59, 3-(4-(2,2-Dimethylbutanoyl)piperazin-1-ylsulfonyl)-4-(3,5-dimethylphenoxy)benzonitrile]
33 | > 5 µM | CC(C)CC(=O)N1CCN(S(=O)(=O)c2cc([N+](=O)[O-])ccc2Oc2cc(Cl)ccc2Cl)CC1 [Compound 177, 1-(4-(2-(2,5-Dichlorophenoxy)-5-nitrophenylsulfonyl)piperazin-1-yl)-3-methylbutan-1-one]
34 | 0.5 to 5 µM | N#Cc1ccc(Oc2cc(Cl)cc(Cl)c2)c(S(=O)(=O)N2CCN(C(=O)Oc3ccccc3)CC2)c1 [Compound 96]
35 | ≤ 0.05 µM | CC(=O)c1cccc(NC(=O)N2CCN(S(=O)(=O)c3cc(C#N)ccc3Oc3cc(Cl)cc(Cl)c3)CC2)c1 [Compound 140]
36 | > 5 µM | Cc1ccc(C(=O)N2CCN(S(=O)(=O)c3cc(C#N)ccc3Sc3cc(Cl)cc(Cl)c3)CC2)cc1 [Compound 104]
37 | ≤ 0.05 µM | N#Cc1ccc(Oc2cc(Cl)cc(Cl)c2)c(S(=O)(=O)N2CCN(C(=O)Nc3cccc(F)c3)CC2)c1 [Compound 75, 4-(5-Cyano-2-(3,5-dichlorophenoxy)phenylsulfonyl)-N-(3-fluorophenyl)piperazine-1-carboxamide]
38 | 0.5 to 5 µM | CC(C)NC(=O)N1CCN(S(=O)(=O)c2cc(C#N)ccc2Oc2cc(Cl)cc(Cl)c2)CC1 [Compound 80, 4-(5-Cyano-2-(3,5-dichlorophenoxy)phenylsulfonyl)-N-isopropylpiperazine-1-carboxamide]
39 | > 5 µM | CC(=O)N1CCN(S(=O)(=O)c2cc(C#N)ccc2Oc2cc(C)cc(C)c2)CC1 [Compound 107]
40 | > 5 µM | N#Cc1ccc(Oc2cc(Cl)cc(Cl)c2)c(S(=O)(=O)N2CCN(C(=S)NC(=O)/C=C/c3ccccc3)CC2)c1 [Compound 147]
41 | 0.5 to 5 µM | Cc1ccc(C(=O)N2CCN(S(=O)(=O)c3cc(C#N)ccc3Oc3cc(C)cc(C)c3)CC2)cc1 [Compound 114]
42 | > 5 µM | Cc1cc(C)cc(Oc2ccc(C#N)cc2S(=O)(=O)N2CCN(S(=O)(=O)CC(C)C)CC2)c1 [Compound 56, 4-(3,5-Dimethylphenoxy)-3-(4-(isobutylsulfonyl)piperazin-1-ylsulfonyl)benzonitrile]
43 | > 5 µM | Cc1cc(C)cc(Oc2ccc(C#N)cc2S(=O)(=O)N2CCN(C(=O)C3CCC3)CC2)c1 [Compound 64, 3-(4-(Cyclobutanecarbonyl)piperazin-1-ylsulfonyl)-4-(3,5-dmethylphenoxy)benzonitrile]
44 | > 5 µM | COc1ccc(C(=O)N2CCN(S(=O)(=O)c3cc(C#N)ccc3Oc3cc(C)cc(C)c3)CC2)cc1 [Compound 117]
45 | > 5 µM | Cc1cccc(C(=O)N2CCN(S(=O)(=O)c3cc(C#N)ccc3Sc3cc(Cl)cc(Cl)c3)CC2)c1 [Compound 105]

Row | SMILES | Ki
46 | N/C(=N\[N+](=O)[O-])N1CCN(S(=O)(=O)c2cc([N+](=O)[O-])ccc2Oc2cc(Cl)cc(Cl)c2)CC1 [Compound 154] | > 5 µM
47 | N#Cc1ccc(Oc2cc(Cl)cc(Cl)c2)c(S(=O)(=O)N2CCN(C(=O)NCCCl)CC2)c1 [Compound 142] | 0.05 to 0.5 µM
